# Legend:
# J558 tumor cells = assay: Tumor protection assay, J558 plasmacytoma; format: in vivo, mouse
# Procedure: (§1) 2×10^7 irradiated J558-Ld^− cells, were injected i.v. or s.c. into Balb/c mice with or without α-Gal Cer as a DC maturation stimulus. In some experiments we compared α-Gal Cer to agonistic anti-CD40 mAb (1C10, 25 μg i.p.) or the toll like receptor ligands, poly IC ([…], Invivogen) or lipopolysaccharide (20 μgm, Sigma). The mice had been given CFSE-labeled PICTL CD8^+ T cells i.v. 1 d earlier, or were naive animals. In some experiments, mice were sacrificed 3 d later, and T cell division and activation in spleen were analyzed by flow cytometry. Additionally, 7 d or 2 months later, 5×10^6 live J558 tumor cells were inoculated subcutaneously. 5×10^6 Meth A fibrosarcoma was used as a control tumor for challenge. Tumor cell growth was measured with calipers every other day. Mice were scored positive for tumor as soon as tumors became palpable and grew progressively. Mice were euthanized when tumor size exceeded 400 mm^2.
# Mice vaccinated with J558 and α-Gal Cer were injected with ascites containing 1 mg of rat monoclonal anti-CD4 (clone GK 1.5) or anti-CD8 (clone 53-6.72). The mice received three daily injections, the first one i.v. one day before the challenge, and two i.p. injections on the day of the challenge and one day after the challenge. Control mice received 1 mg of Rat IgG (Jackson Laboratories). The depletion was monitored by staining with anti-CD4 and anti-CD8 antibodies followed by flow cytometry (BD PharMingen).
# In vivo delivery of dying tumor cells, DC maturation stimuli, and tumor protection assay. Different doses of irradiated J558-Ld− cells were injected i.v. into naïve BALB/c mice either alone or with αGalCer (2 or 0.2 μg/mouse) or 24 (2 or 0.2 μg/mouse) as a DC maturation stimulus. We also compared the glycolipids to agonistic anti-CD40 mAb (1C10, 25 μg, i.p.) or the Toll-like receptor ligands, poly IC (50 μg i.p., Invivogen). 14 d later, 5×10^6 live J558 tumor cells were inoculated s.c. Tumor cell growth was measured with calipers every other day. Mice were scored positive for tumor, as soon as tumors became palpable and grew progressively. Mice were euthanized when tumor size exceeded 400 mm^2.
# spleen CD11c+ DCs = assay: DC maturation in vivo (surface markers, flow cytometry); parameters: species or system mouse
# Procedure: as §1
# T-cell division, phagocytosis of CFSE-labeled tumor cells and acquisition of cell surface-activation markers were determined by flow cytometry. Briefly, spleens were harvested and low-density splenocytes were stained with CD11c-APC and CD8α-PE, CD11b-PE, B220-PE or CD4-PE for the up-take examination. For in vivo proliferation of P1CTL T-cells, spleens were harvested and the splenocytes suspension was staining with CD8α-Cy, Vα8α-PE, CD25-PE, CD62L-PE. For intracellular cytokine staining, splenocytes were stimulated in vitro with 1 µg/ml P1A peptide in 5 μg/ml brefeldin A (Sigma-Aldrich) at 37° C. for 4 hrs. The cells were first stained with CD8α-Cy-Chrome™, fixed and permeabilized with cytofix-cytoperm buffer (BD Biosciences), and stained with PE conjugated mAbs to IL-2 or IFN-γ.
# Flow cytometry. Acquisition of cell surface-activation markers was determined by flow cytometry. […] Spleen CD11c+ DCs were isolated using anti-CD11c magnetic beads and stained with CD11c-FITC, CD8α− allophycocyanin, and PE-Conjugated I-Ad, CD40, CD80, CD86, CD119, B7-H1 and B7-DC. We used a FACSCalibur™ with data analysis in FlowJo (Tree Star).
# [1] = test system: serum IFN-γ, IL-12p70 and other cytokines; assay: Serum cytokines (Luminex); format: in vivo, mouse
# Procedure: Serum cytokines. […] 25 μl of sample was preincubated with serum diluent and incubated for 2 h with Beadmates coated with anti-cytokine mAbs. The fluid was then aspirated and the wells incubated for 1.5 h with biotin-conjugated anti-cytokine mAbs followed by 30 min incubation with Beadlyte streptavidin-PE secondary antibody. Samples were acquired in duplicate by Luminex and analyzed using Beadview software (Upstate).
# [2] = test system: spleen CD11c+ cells (DCs and NK cells); assay: Cytokine production by DCs after in vivo glycolipid; parameters: species or system mouse; conditions: cultured in the presence of αCD40; ELISA and Luminex; data not shown
# Procedure: Cytokine production by DCs. After mice were given αGalCer or Compound 24 i.v., CD11c+ cells were isolated with anti-CD11c magnetic beads and cultured 4 h in the presence of Golgistop (from Cytofix/CytoPerm Plus kit; BD Biosciences). Cells were then stained for surface markers (CD11c and DX-5), permeabilized in 100 μl Cytofix/Cytoperm solution using manufacturer's instructions and stained for intracellular cytokines (IFN-γ and IL-12).
# [3] = test system: human NKT cells (Vα24/Vβ11); assay: Human dendritic cell mediated NKT cell expansion; format: cell-based; parameters: NKT cell expansion (Table 1): unit not given here
# Source text: Human dendritic cell mediated NKT cell expansion. CD14+ monocytes were isolated from PBMC using anti-CD14 magnetic microbeads and cultured in the presence of GM-CSF and IL-4 to generate DCs, followed at day 5-6, by maturation in an inflammatory cytokine cocktail as described herein. To stimulate NKT cells, DCs were pulsed with α-GalCer and the tested analogs, and cultured with CD14− cells at a DC: responder ratio of 1:10. NKT cell expansion was monitored by flow cytometry based on the expression of the invariant NKT cell receptor (Vα24/Vβ11).
# [4] = test system: DCs from bone marrow progenitors; assay: Direct DC maturation from bone marrow progenitors in culture; format: cell-based; conditions: data not shown
# [5] = test system: human NKT cells (Vα24/Vβ11); assay: Human dendritic cell mediated NKT cell expansion; format: cell-based; conditions: DCs loaded with glycolipid; data not shown
smiles,measurement,setting,value
"CCCCCCCCCCCCCCCCCCCCCCCCCC(=O)N[C@@H](CO[C@H]1O[C@H](CO)[C@H](O)[C@H](O)[C@H]1O)[C@H](O)[C@H](O)CCCCCCCCCCCCCC [α-GalCer, 2S,3S,4R-1-O(α-galactopyranosyl)-2(N-hexacosanoylamino)-1,3,4-octadecanetriol]",protection from J558 tumor challenge,"J558 tumor cells; 0.2 μg/mouse with 1×10^7 irradiated J558Ld− tumor cells i.v., challenge 14 days later",100%
same,protection from J558 tumor challenge,"J558 tumor cells; 2 μg/mouse with 1×10^7 irradiated J558Ld− tumor cells i.v., challenge 14 days later",100%
same,mice fully protected after transfer of CD11c+ DCs,"J558 tumor cells; 1.5×10^6 DCs from donors given dying J558− with α-Gal Cer, 10 of 17 mice",58%
same,tumor immunity after depletion of CD4+ or CD8+ T cells,J558 tumor cells; 8 weeks after vaccination with J558 and α-Gal Cer,significantly abrogated tumor immunity
same,dependence of vaccination on route,"J558 tumor cells; J558 and α-Gal Cer, i.v. vs s.c.",effective only when tumor cells were injected by the i.v. and not the s.c. route
same,specificity of protection (J558 vs Meth A challenge),J558 tumor cells; dying J558− and α-Gal Cer,protected mice against a challenge of J558 but not Meth A cells
same,protection against MHC class I positive or negative J558 challenge,J558 tumor cells; dying MHC class I− J558 cells and α-Gal Cer,protected against the MHC class I^+ J558 cells but not to MHC class F J558 tumor cells
same,tumor immunity in Jα281−/− mice (lack NKT cells),J558 tumor cells; dying cells plus glycolipid,failed to develop immunity
same,tumor growth after single agent alone,"J558 tumor cells; glycolipid alone (2 or 0.2 μg/mouse) or irradiated cells alone, challenge 14 days later",grew progressively within 7-10 days
same,duration of tumor immunity,"J558 tumor cells; single vaccination with irradiated J558 and α-Gal Cer, challenge 2 and 4 months later",long-lived tumor immunity
same,therapeutic effect,J558 tumor cells; vaccinated 3 days after injection of live tumor cells,therapeutic response manifest when the tumor dose was 1×10^6 but not 5×10^6 cells
same,mice protected and tumor-free after J558 challenge,"J558 tumor cells; vaccination with irradiated J558− cells combined with α-Gal Cer i.v., 22 of 25 mice",88%
same,protective immunity to irradiated tumor injected i.v. (adjuvant comparison),J558 tumor cells; vs αCD40 and poly IC,only adjuvant that could independently induce protective immunity
same,"protective immunity compared with anti-CD40, LPS and poly IC",J558 tumor cells; with irradiated J558− cells,more efficient at inducing protective immunity than the other compounds tested
same,tumor growth after glycolipid alone,"J558 tumor cells; α-Gal Cer alone i.v., challenge 5×10^6 live J558 s.c.",grew progressively within 7-10 days
same,dose dependence of DC maturation,"spleen CD11c+ DCs; 2, 0.2, 0.02 and 0.002 μg/mouse",correlated with the dose of glycolipid administered
same,DC maturation response compared with αCD40 mAb and polyIC,spleen CD11c+ DCs; 15 h following i.v. administration,paralleled and exceeded those seen with other known stimuli for DC maturation in vivo
same,surface markers on CD11c+CD8− DCs,spleen CD11c+ DCs; 15 hours after i.v. glycolipid,"induced strong upregulation of CD86, B7-H1 and B7-DC but only slightly upregulated MHC II, CD40 and CD80"
same,marker expression on DCs that captured dying tumor cells (CD11c+ CFSE+),spleen CD11c+ DCs; co-injection with irradiated J558− cells i.v.,strongly upregulated the expression of antigen presenting and costimulatory molecules
same,"maturation of total CD11c+ splenic DCs (MHC II, CD80, CD86, B7-H1, B7-DC)","spleen CD11c+ DCs; co-injection with irradiated J558− cells i.v., 5 hours",resulted in the maturation of the total CD11c^+ DC population
same,DC maturation in Jα281−/− mice,spleen CD11c+ DCs; mice lacking NKT cells,did not mature
same,"phenotypic changes of DC maturation (CD40, CD86, MHC class II, B7-H1, B7-DC up, CD119 down)","spleen CD11c+ DCs; mouse, in vivo",induced similar phenotypic changes of maturation
same,induction of splenic DC maturation in vivo,spleen CD11c+ DCs; surface activation markers,rapid and efficient inducers of splenic DC maturation in vivo
same,serum IL-12p70,"[1]; 0.02 μg, 15 h",~50 pg/mL
same,serum IFNγ,"[1]; 0.02 μg, 15 hours",~100 pg/mL
same,"serum IFN-γ, IL-12p70, IL-4, TNF-α and IL-2 response","[1]; 2 μg i.v., 2, 6, 12 and 24 h","induced rapid increases in serum IFN-γ, IL-12p70, IL-4, TNF-α and IL-2 concentrations"
same,serum IFN-γ,"[1]; 2 μg i.v., by 6 h",6000 pg/mL
same,serum IL-12p70,"[1]; 2 μg i.v., by 6 h",~600 pg/mL
same,serum IFN-γ,"[1]; 2 μg i.v., by 12 h",~1200 pg/mL
same,serum IL-12p70,"[1]; 2 μg i.v., by 12 h",~200 pg/mL
same,serum IFN-γ and IL12p70 release in Jα281−/− mice,[1]; i.v. injection,lacked the ability to release IFN-γ and IL12p70 into the serum
same,"IL-12p40, IL-6 and TNF-α from DCs of primed mice",[2],"significant but comparable amounts of IL-12p40, IL-6 and TNF-α"
same,NKT cell expansion by loaded human DCs,[3]; DC to responder ratio 1:10,efficient inducers of NKT cell expansion in culture
same,NKT cell expansion (Table 1),[3]; Donor 1,3.55
same,NKT cell expansion (Table 1),[3]; Donor 2,2.65
same,NKT cell expansion (Table 1),[3]; Donor 3,1.53
same,NKT cell expansion (Table 1),[3]; Donor 4,3.55
same,direct stimulation of DC maturation,[4],unable to directly stimulate DC maturation from bone marrow progenitors in culture
same,"production of IFNγ, IL-13 and IL-2 by NKT cells",[5],"induced rapid production of IFNγ, IL-13 and IL-2"
